Results from publication PMC6414029, “Utilisation of the Prestwick Chemical Library to identify drugs that inhibit the growth of mycobacteria” (PLoS ONE, 2019).
Values after ≈ are worked out from the molar mass of the structure shown. Counter-ions that a name gives are not always drawn. Like-named read-outs stand apart in the source and are kept apart here.

What was measured:
[1] = system: M. smegmatis; experiment: microbe, parasite or virus in culture; assay type: cell-based, Mycobacterium smegmatis; conditions: liquid medium
[2] = system: M. smegmatis; experiment: MIC determination on solid agar; assay type: cell-based, Mycobacterium smegmatis; conditions: for MIC: read-out: Solid MIC
Experimental: Drugs were diluted from a 10mM stock, mixed individually in 2 mLs of molten 7H10 agar and dispensed in square partitioned petri plates. Plates were incubated at 37°C and solid MIC was determined based on absence of colonies.

[3] = system: BCG; experiment: microbe, parasite or virus in culture; assay type: cell-based, Mycobacterium bovis BCG; conditions: for MIC: Mycobacterium tuberculosis variant bovis BCG, BCG, read-out: Liquid MIC
[4] = system: BCG; experiment: microbe, parasite or virus in culture; assay type: cell-based, Mycobacterium bovis BCG; conditions: for MIC: Mycobacterium tuberculosis variant bovis BCG
[5] = system: HepG2 cells; experiment: HepG2 cytotoxicity assay (CellTitre-Glo); assay type: cell-based
Experimental: Actively growing HepG2 cells were removed from a T-175 tissue culture flask with 5 mL of Eagle’s MEM containing 10% FBS/1%NEAA/1% Penicillin and Streptomycin) and mixed with gentle pipetting. […] The cell suspension was added to 250 mL of the same medium at a final density of […]. […] Plates were allowed to incubate at 37°C at a relative humidity of 80% and 5% CO2 for 48 hours. After incubation, the plates were allowed to equilibrate at room temperature for 30 mins before 25 μL of CellTitre-Glo (Promega) reagent was added to each well using a multichannel pipette. Plates were left at room temperature for 30 mins before relative luminescence was read using a BMG Labtech POLARstar Omega plate reader.

[6] = system: M. tuberculosis H37Rv; experiment: Alamar Blue (resazurin) MIC assay; assay type: cell-based, Mycobacterium tuberculosis; conditions: liquid growth media
Experimental: To investigate the effects of repurposed compounds on growth of M. tuberculosis H37Rv using an Alamar Blue based MIC assay using the resazurin reagent. This assay was performed in 7H9 medium containing Middlebrook broth and 0.5% glycerol and supplemented with oleic acid, albumin, dextrose, and catalase. Clear- 96-well plates were inoculated with 100 μL of drug diluted with 90 μl of 7H9 medium and 10 μL DMSO. Serial 3-fold dilutions of each drug in 100 μL of 7H9 medium were prepared at various ranges. Growth controls containing no antibiotic and sterility controls without inoculation were also included. 200 μL of sterile deionized water was added to the outer perimeter wells to prevent evaporation during plate incubation. Plates were incubated plate at 37°C for 3–4 days. After incubation, the plates were removed and 10 μL of resazurin (0.02% w/v) was added to each well that contained bacteria. Assay plates were reincubated at 37°C for 24–48 hours and visually assessed for colour development. OD 570 nm readings were taken to provide further quantitation provide an interpretation of the dose response of the bacterium to repurposed compounds.

[7] = system: BCG over-expressing EchA12; experiment: microbe, parasite or virus in culture; assay type: cell-based, Mycobacterium bovis BCG
[8] = system: BCG over-expressing AroB; experiment: microbe, parasite or virus in culture; assay type: cell-based, Mycobacterium bovis BCG
[9] = Mycolicibacterium smegmatis, M. smegmatis, 7H10 solid agar, absence of colonies
[10] = read-out: Solid MIC, BCG, 7H10 solid agar, absence of colonies
[11] = read-out: Solid MIC, BCG, solid agar, values given in mM
[12] = M. smegmatis, 7H10 solid agar, absence of colonies

| SMILES | MIC ([1]; Mycolicibacterium smegmatis) | MIC [1] | MIC [2, 9] | Liquid MIC [3] | MIC [3] | MIC [4, 10] | further results |
| --- | --- | --- | --- | --- | --- | --- | --- |
| CCCCC(CC)CNC(=N)NC(=N)NCCCCCCNC(=N)NC(=N)NCC(CC)CCCC (stereo not drawn) [Alexidine] | 6.15 µM (≈ 3.13 µg/mL) | – | – | – | – | – | – |
| CN1CCc2cccc3c2[C@H]1Cc1ccc(O)c(O)c1-3 [Apomorphine] | – | 241.7 µM (≈ 64.6 µg/mL) | 625 µM (≈ 167 µg/mL) | – | – | – | – |
| COc1ccc(CCN2CCC(Nc3nc4ccccc4n3Cc3ccc(F)cc3)CC2)cc1 [Astemizole] | – | – | – | 17.78 µM | 17.8 µM (≈ 8.16 µg/mL) | 0.05 mM (≈ 22.9 µg/mL) | MIC [4, 11]: ~0.05 mM (≈ 22.9 µg/mL) |
| CC(=O)OC[C@H]1O[C@@H]([S-])[C@H](OC(C)=O)[C@@H](OC(C)=O)[C@@H]1OC(C)=O.CCP(CC)CC.[Au+] [Auranofin] | – | 0.51 µM | – | – | – | – | IC50 ([5]; 48 hours): 3 µM; Solid MIC relative to liquid MIC ([2]; M. smegmatis): 12 fold; MIC [2, 12]: 6.0 µM; MIC [6]: 0.27 µM |
| [H]/N=C(\N/C(=N/[H])NCCCCCCNC(=N)NC(=N)Nc1ccc(Cl)cc1)Nc1ccc(Cl)cc1 [Chlorhexidine] | 1.98 µM (≈ 1 µg/mL) | 1.95 µM (≈ 0.986 µg/mL) | 16 µM (≈ 8.09 µg/mL) | – | – | – | – |
| CCN(CC)CCOc1ccc(C(=C(Cl)c2ccccc2)c2ccccc2)cc1 [Clomiphene citrate] | 9.03 to 26.6 µM | 9.03 µM | 37.5 µM | – | – | – | MIC ([6]; Mycobacterium tuberculosis): 7.59 µM |
| O=c1c2ccccc2[se]n1-c1ccccc1 [Ebselen] | 10.3 µM (≈ 2.82 µg/mL) | – | – | – | – | – | IC50 ([5]; Homo sapiens, HepG2, 48 hours): 45 µM; MIC ([6]; Mycobacterium tuberculosis): 18.5 µM (≈ 5.08 µg/mL) |
| CC(NCCC(c1ccccc1)c1ccccc1)c1ccccc1 (stereo not drawn) [Fendiline hydrochloride] | 77 to 828 µM | 77.57 µM | 15.6 µM | – | – | – | – |
| CS(=O)(=O)c1ccc([C@@H](O)[C@@H](CF)NC(=O)C(Cl)Cl)cc1 [Florfenicol] | – | – | – | 0.67 µM | 0.7 µM (≈ 0.251 µg/mL) | ~0.005 mM (≈ 1.79 µg/mL) | MIC in the absence of EchA12 over-expression, compared with wild-type BCG [7]: unchanged; MIC ([7]; Mycobacterium tuberculosis variant bovis BCG, BCG, read-out: MIC upon over-expression of EchA12): > 12 µM; Solid MIC relative to liquid MIC [4]: 5 fold; Solid MIC ([4]; 7H10 solid agar, absence of colonies, listed as Florfenciol): 6 µM; IC50 ([5]; Homo sapiens, HepG2, 48 hours): > 250 µM; MIC ([6]; Mycobacterium tuberculosis): 25.4 µM (≈ 9.1 µg/mL) |
| O=C1NCN(c2ccccc2)C12CCN(CCCC(c1ccc(F)cc1)c1ccc(F)cc1)CC2 [Fluspirilene] | – | 827.5 µM (≈ 394 µg/mL) | – | – | – | – | – |
| Fc1ccc(C(OCCN2CCN(CCCc3ccccc3)CC2)c2ccc(F)cc2)cc1 [GBR 12909, Vanoxerine] | 18.6 µM (≈ 8.38 µg/mL) | – | 62.5 µM (≈ 28.2 µg/mL) | – | 20.5 µM (≈ 9.24 µg/mL) | 0.0282 mM (≈ 12.7 µg/mL) | IC50 ([5]; Homo sapiens, HepG2, 48 hours): 55 µM; MIC in the absence of AroB over-expression, compared with wild-type BCG [8]: unchanged; MIC ([8]; Mycobacterium tuberculosis variant bovis BCG, BCG, read-out: MIC upon over-expression of AroB): > 50 µM; MIC ([6]; Mycobacterium tuberculosis): 26.6 µM (≈ 12 µg/mL) |
| Cc1cnc(C(=O)NCCc2ccc(S(=O)(=O)NC(=O)NC3CCCCC3)cc2)cn1 [Glipizide] | – | – | – | 191.10 µM | 191 µM (≈ 85.1 µg/mL) | – | – |
| CN1C2CCCC1CC(NC(=O)c1nn(C)c3ccccc13)C2 (stereo not drawn) [Granisteron, Granisetron] | – | – | – | 210.60 µM | 211 µM (≈ 65.8 µg/mL) | ≥ 0.5 mM | MIC [4, 11]: > 0.5 mM |
| CO[C@@H]1[C@@H](O[C@@H]2O[C@H](C)[C@@H](O[C@H]3C[C@@](C)(O)[C@@H](OC(=O)CC(C)C)[C@H](C)O3)[C@H](N(C)C)[C@H]2O)[C@@H](CC=O)C[C@@H](C)[C@@H](O)/C=C/C=C/C[C@@H](C)OC(=O)C[C@H]1OC(C)=O [Josamycin] | – | – | – | 0.10 µM | 0.1 µM (≈ 0.0828 µg/mL) | > 0.1 mM | – |
| C=C1c2c(Cl)ccc(O)c2C(=O)C2=C(O)[C@]3(O)C(=O)C(C(N)=O)=C(O)[C@@H](N(C)C)[C@@H]3[C@@H](O)[C@H]12 [Meclocyline sulfosalicylate, meclocycline sulfosalicylate] | 0.1 µM (≈ 0.0477 µg/mL) | – | – | – | – | – | MIC [2, 12]: 0.20 µM (≈ 0.0954 µg/mL); MIC ([2]; Mycolicibacterium smegmatis): 0.2 µM (≈ 0.0954 µg/mL) |
| COC(=O)C1=C(C)NC(C)=C(C(=O)OCC(C)C)C1c1ccccc1[N+](=O)[O-] (stereo not drawn) [Nisoldipine] | – | 396.2 µM (≈ 154 µg/mL) | 100 µM (≈ 38.8 µg/mL) | – | – | – | – |
